Tested on: rat small-intestinal brush border membrane vesicles
Assay: Inhibitory effect on 33PO4 uptake into rat small-intestinal brush border membrane vesicles (rapid filtration method)
Type: biochemical, Wistar female rat
Conditions: 1 µM test compound; 33PO4 uptake into rat small-intestinal BBMVs, 60 seconds
Method in brief: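 Uptake was terminated by ice-cold 110 mM NaCl, 1 mM KH2PO4, 10 mM HEPES (pH 7.5) buffer and immediate suction filtration, then washing. Using rat small-intestinal BBMVs, retained 33PO4 was quantified by liquid scintillation counting as transport activity.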

Row | Compound | Rate of uptake inhibition (%) (1 µM)
1 | C[C@]12CCCN1N(Cc1cccc(F)c1F)C(=O)C(C(=O)Nc1ccc(C(F)(F)F)cc1-c1cc(Cl)cnc1Cl)=C2O [Example 84] | 91
2 | C[C@]12CCCN1N(Cc1c(F)cc(OCCCCCOC[C@@H](O)CO)cc1F)C(=O)C(C(=O)Nc1ccc(C(F)(F)F)cc1-c1ccc(C(F)(F)F)nc1)=C2O [Example 153] | 73
3 | C[C@]12CCCN1N(Cc1c(F)cccc1F)C(=O)C(C(=O)Nc1ccc(C(F)(F)F)cc1-c1cc(C(F)(F)F)ncn1)=C2O [Example 212] | 98
4 | CN1N(Cc2ccc(OCCCCCCC(=O)O)c(F)c2F)C(=O)C(C(=O)Nc2ccc(C(F)(F)F)cc2-c2cc(C(F)(F)F)ncn2)=C(O)C12CCCC2 [Example 335] | 30
5 | CCOc1cccc(-c2cc(C(F)(F)F)ccc2NC(=O)C2=C(O)[C@@]3(C)CCCN3N(Cc3cccc(F)c3F)C2=O)c1OC [Example 66] | 96
6 | C[C@]12CCCN1N(Cc1ccc(C#CCCCCC(=O)O)c(F)c1F)C(=O)C(C(=O)Nc1ccc(C(F)(F)F)cc1-c1cncc(C(F)(F)F)c1)=C2O [Example 119, 7-[4-[[(4aR)4-Hydroxy-4a-methyl-2-oxo-3-[[4-(trifluoromethyl)-2-[5-(trifluoromethyl)pyridin-3-yl]phenyl]carbamoyl]-6,7-dihydro-5H-pyrrolo[1,2-b]pyridazin-1-yl]methyl)-2,3-difluorophenyl]hept-6-ynoate] | 71
7 | Cc1cc(-c2cc(C(F)(F)F)ccc2NC(=O)C2=C(O)[C@@]3(C)CCCN3N(Cc3cccc(F)c3F)C2=O)cnc1C#N [Example 101] | 57
8 | CN1N(Cc2cccc(F)c2F)C(=O)C(C(=O)Nc2ccc(C(F)(F)F)nc2-c2cncc(C(F)(F)F)c2)=C(O)C1(C)C [Example 306] | 58
9 | CCN1[C@@H](C(C)(C)C)C(O)=C(C(=O)Nc2ccc(Cl)cc2-c2ccc(C(F)(F)F)nc2)C(=O)N1Cc1cccc(F)c1F [Example 245] | 40
10 | CN(C)S(=O)(=O)c1ccc(-c2nc(C(F)(F)F)ccc2NC(=O)C2=C(O)[C@@]3(C)CCCN3N(Cc3cccc(F)c3F)C2=O)cc1 [Example 87] | 84
11 | CN1N(Cc2ccc(OCCCCOC[C@H](O)CO)c(F)c2F)C(=O)C(C(=O)Nc2ccc(C(F)(F)F)cc2-c2cc(C(F)(F)F)ncn2)=C(O)C12CCCC2 [Example 393] | 45
12 | COCCN(CCOC)CCOc1ccc(CN2C(=O)C(C(=O)Nc3ccc(C(F)(F)F)cc3-c3cc(C(F)(F)F)ncn3)=C(O)C3(CCC3)N2C)c(F)c1F [Example 348] | 31
13 | CN1N(Cc2cccc(F)c2F)C(=O)C(C(=O)Nc2ccc(C(F)(F)F)cc2-c2cncc(C(F)(F)F)c2)=C(O)C1(C)C [Example 305] | 66
14 | C[C@]12CCCN1N(Cc1ccccc1)C(=O)C(C(=O)Nc1ccc(C(F)(F)F)cc1-c1cc(C(F)(F)F)ncn1)=C2O [Example 188] | 93
15 | C[C@]12CCCN1N(Cc1ccc(OC[C@H]3CCCO3)c(F)c1F)C(=O)C(C(=O)Nc1ccc(C(F)(F)F)cc1-c1ccc(C(F)(F)F)nc1)=C2O [Example 160] | 77
16 | C[C@]12CCCN1N(Cc1c(F)cc(CCCCCCCOC[C@H](O)[C@@H](O)CO)cc1F)C(=O)C(C(=O)Nc1ccc(C(F)(F)F)cc1-c1ccc(C(F)(F)F)nc1)=C2O [Example 125, (4aR)-1-[[2,6-Difluoro-4-[7-[(2S,3S)-2,3,4-trihydroxybutoxy]heptyl]phenyl]methyl]-4-hydroxy-4a-methvl-2-oxo-N-[4-(trifluoromethyl)-2-[6-(trifluoromethyl)pyridin-3-yl]phenyl]-6,7-dihydro-5H-pyrrolo[1,2-b]pyridazine-3-carboxamide] | 76
17 | COC[C@@H]1CCCN1CCOc1ccc(CN2C(=O)C(C(=O)Nc3ccc(C(F)(F)F)cc3-c3cc(C(F)(F)F)ncn3)=C(O)C3(CCCC3)N2C)c(F)c1F [Example 375] | 31
18 | COc1c(C#N)ncnc1-c1cc(C(F)(F)F)ccc1NC(=O)C1=C(O)[C@@]2(C)CCCN2N(Cc2cccc(F)c2F)C1=O [Example 25] | 82
19 | CN1N(Cc2cccc(F)c2F)C(=O)C(C(=O)Nc2ccc(Br)c(C(F)(F)F)n2)=C(O)C12CCCC2 [Example 263] | 66
20 | C[C@]12CCCN1N(Cc1ccc(F)c(F)c1)C(=O)C(C(=O)Nc1cc(F)c(Br)c(F)c1)=C2O [Example 191] | 87
21 | C[C@]12CCCN1N(Cc1cc(F)c(F)cc1F)C(=O)C(C(=O)Nc1cc(F)c(Br)c(F)c1)=C2O [Example 194] | 80

Row | Compound | Rate of uptake inhibition (%) (1 µM)
22 | CSC1CN(CCOc2ccc(CN3C(=O)C(C(=O)Nc4ccc(C(F)(F)F)cc4-c4cc(C(F)(F)F)ncn4)=C(O)C4(CCC4)N3C)c(F)c2F)C1 [Example 357] | 45
23 | (4aR)-4a-Ethyl-1-[(3-fluorophenyl)methyl]-4-hydroxy-N-[5-methyl-2-(trifluoromethyl)furan-3-yl]-2-oxo-6,7-dihydro-5H-pyrrolo[1,2-b]pyridazine-3-carboxamide [Example 9] | 63
24 | C[C@]12CCCN1N(Cc1cccc(Cl)c1)C(=O)C(C(=O)Nc1cc(F)c(Br)c(F)c1)=C2O [Example 221] | 82
25 | Cc1c(-c2cc(C(F)(F)F)ccc2NC(=O)C2=C(O)C3(CCC3)N(C)N(Cc3ccc(OCCN4CCOCC4)c(F)c3F)C2=O)ncnc1C(F)(F)F [Example 285] | 62
26 | C[C@@]12CCCN1N(Cc1ccc(OCCN3CCOCC3)c(F)c1F)C(=O)C(C(=O)Nc1ccc(Cl)cc1-c1cc(C(F)(F)F)ncn1)=C2O.Cl [Example 107] | 54
27 | COc1cccc(-c2cc(C(F)(F)F)ccc2NC(=O)C2=C(O)[C@@]3(C)CCCN3N(Cc3ccc(C#CCCCCO)c(F)c3F)C2=O)c1OC [Example 135] | 90
28 | CN1N(Cc2ccc(OCCN3CCOCC3)c(F)c2F)C(=O)C(C(=O)Nc2ccc(C(F)(F)F)cc2-c2cc(C(F)(F)F)ncn2)=C(O)C1(C)C [Example 313, 2-[[2,3-Difluoro-4-(2-morpholin-4-ylethoxy)phenyl]methyl]-5-hydroxy-1,6,6-trimethyl-3-oxo-N-[4-(trifluoromethyl)-2-[6-(trifluoromethyl)pyrimidin-4-yl]phenyl]pyridazine-4-carboxamide] | 65
29 | C[C@]12CCCN1N(Cc1ccc(Br)cc1F)C(=O)C(C(=O)Nc1cc(F)c(Br)c(F)c1)=C2O [Example 166, (4aR)-N-(4-Bromo-3,5-difluorophenyl)-1-[(4-bromo-2-fluorophenyl)methyl]-4-hydroxy-4a-methyl-2-oxo-6,7-dihydro-5H-pyrrolo[1,2-b]pyridazine-3-carboxamide] | 73
30 | CN1N(Cc2ccc(OCCCOC[C@H](O)CO)c(F)c2F)C(=O)C(C(=O)Nc2ccc(C(F)(F)F)cc2-c2ccc(C(F)(F)F)nc2)=C(O)C12CCC2 [Example 383, 6-[[4-[3-[(2R)-2,3-Dihydroxypropoxy]propoxy]-2,3-difluorophenyl]methyl]-9-hydroxy-5-methyl-7-oxo-N-[4-(trifluoromethyl)-2-[6-(trifluoromethyl)pyrydin-3-yl]phenyl]-5,6-diazaspiro[3.5]non-8-ene-8-carboxamide] | 126
31 | C[C@]12CCCN1N(Cc1cccc(C#N)c1)C(=O)C(C(=O)Nc1ccc(C(F)(F)F)cc1-c1cc(C(F)(F)F)ncn1)=C2O [Example 179] | 83
32 | CCC1(CC)C(O)=C(C(=O)Nc2ccc(C(F)(F)F)cc2-c2ccc(C(F)(F)F)nc2)C(=O)N(Cc2ccc(OCCN3CCOCC3)c(F)c2F)N1C [Example 293] | 47
33 | C[C@]12CCCN1N(Cc1ccc(F)cc1)C(=O)C(C(=O)Nc1ccc(C(F)(F)F)cc1-c1ccc(C(F)(F)F)nc1)=C2O [Example 199] | 79
34 | C[C@]12CCCN1N(Cc1ccccc1F)C(=O)C(C(=O)Nc1ccc(C(F)(F)F)cc1-c1cc(C(F)(F)F)ncn1)=C2O [Example 207] | 73
35 | C[C@]12CCCN1N(Cc1cccc(F)c1F)C(=O)C(C(=O)Nc1ccc(C(F)(F)F)cc1-c1ccc(C(F)(F)F)nc1)=C2O [Example 90] | 91
36 | C[C@]12CCCN1N(Cc1c(F)cc(C#CC3(O)CCCC3)cc1F)C(=O)C(C(=O)Nc1ccc(C(F)(F)F)cc1-c1ccc(C(F)(F)F)nc1)=C2O [Example 130] | 72
37 | COC(=O)c1cc(F)c(CN2C(=O)C(C(=O)Nc3ccc(C(F)(F)F)cc3-c3ccc(C(F)(F)F)nc3)=C(O)[C@@]3(C)CCCN23)c(F)c1 [Example 165, Methyl 4-[[(4aR)-4-Hydroxy-4a-methyl-2-oxo-3-[[4-(trifluoromethyl)-2-[6-(trifluoromethyl)pyridin-3-yl]phenyl]carbamoyl]-6,7-dihydro-5H-pyrrolo[1,2-b]pyridazin-1-yl]methyl]-3,5-difluorobenzoate] | 75
38 | COc1cc(C)c(-c2cc(C(F)(F)F)ccc2NC(=O)C2=C(O)[C@@]3(C)CCCN3N(Cc3cccc(F)c3F)C2=O)cn1 [Example 80] | 75
39 | CN1N(Cc2ccc(OCCCCOC[C@H](O)CO)c(F)c2F)C(=O)C(C(=O)Nc2ccc(C(F)(F)F)cc2-c2ccc(C(F)(F)F)nc2)=C(O)C12CCCC2 [Example 387] | 23
40 | CN1N(Cc2ccc(OCCN3[C@@H]4COC[C@H]3C4)c(F)c2F)C(=O)C(C(=O)Nc2ccc(C(F)(F)F)cc2-c2cc(C(F)(F)F)ncn2)=C(O)C12CCCC2 [Example 380] | 43
41 | Cc1c(Cl)ncnc1-c1cc(C(F)(F)F)ccc1NC(=O)C1=C(O)[C@@]2(C)CCCN2N(Cc2cccc(F)c2F)C1=O [Example 69] | 74
